Test results reported in patent publication US20100255580A1, “Differentiation of Human Embryonic Stem Cells” (LIFESCCAN, INC., priority 2007, published 2010).

Test system: H9 embryonic stem cells
Type: cell-based, human
Conditions: low serum, on MATRIGEL
Description: Controls for each group included cells plated on […]-coated dishes and cultured in MEF-conditioned medium or cells plated on MEFs and cultured in ES medium. All groups contained three biological replicates and each biological replicate was repeated on two separate gene chips.
Sample preparation, hybridization, and image analysis were performed according to the Affymetrix Human Genome U133 Plus 2.0 Array. Following normalization and a log transformation, data analysis was performed using OmniViz® software (MA) and […] (VizXLabs, WA). Significant differences in gene expression between the samples were evaluated using analysis of variance and an F-test with adjusted P-value (Benjamini and
Hochberg correction) of ≦b 0.05. Only genes with a present call in at least one group were included in the analysis.

Activin A: a member of the TGFβ superfamily; R&D Systems; Group 2 = Activin A (100 ng/ml)
log intensity, H2A histone family, member X: 1.371
log intensity, H. sapiens skeletal embryonic myosin light chain 1 (MLC1): 0.6901
log intensity, HT016 mRNA: 0.2188
log intensity, Homo sapiens nudix (nucleoside diphosphate linked moiety X)-type motif (r1198): 3.915
log intensity, Human DNA sequence from clone RP4-781L3 on chromosome 1p34.3-36.11: 2.828
log intensity, Human DNA sequence from clone RP11-446H13 on chromosome 10: −0.8894
log intensity, Human MLC1emb gene for embryonic myosin alkaline light chain, promoter and exon 1: 1.3489
log intensity, Human clone 23826 mRNA sequence: 1.808
log intensity, Human embryonic myosin alkali light chain (MLC1): 1.942
log intensity, Human extracellular matrix protein 1 (ECM1): 0.6348
log intensity, Human mRNA for pro-alpha 1 (II) collagen 3end C-term.: 0.8598
log intensity, Human rho GDI mRNA: 0.01936
log intensity, KIAA0127 gene product (KIAA0127): 2.052
log intensity, KIAA0346 protein: −1.347
log intensity, KIAA0418 gene product: −0.6776
log intensity, KIAA0761 protein: −2.096
log intensity, KIAA0882 protein: 2.056
log intensity, KIAA0918 protein: −1.397
log intensity, KIAA1415 protein: 0.1859
log intensity, KIAA1511 protein: 0.6203
log intensity, Kruppel-like factor 8 (KLF8): 0.3261
log intensity, LIM homeobox protein 1 (LHX1): −0.7717
log intensity, LYST-interacting protein LIP3: −0.6821
log intensity, MAD (mothers against decapentaplegic, Drosophila) homolog 6 (MADH6): 0.9175
log intensity, MYC-associated zinc finger protein (purine-binding transcription factor) (MAZ): −0.05557
log intensity, Novel human mRNA from chromosome 22: −0.5337
log intensity, PNAS-145 mRNA: 2.85
log intensity, PRO1957 mRNA: 1.689
log intensity, PTPRF interacting protein, binding protein 2 (liprin beta 2): −1.92
log intensity, Pig10 (PIG10): 0.1295
log intensity, SG2NA beta isoform: −1.156
log intensity, Similar to B9 protein, clone MGC: 11339: 1.439
log intensity, Similar to RIKEN cDNA C330013D18 gene, clone MGC: 11226: 0.08747
log intensity, Similar to lipase protein, clone MGC: 2843: −1.161
log intensity, X75208 H. sapiens HEK2 mRNA for protein tyrosine kinase receptor: −1.367
log intensity, adaptor-related protein complex 3, beta 2 subunit (AP3B2): −0.2083
log intensity, adenylate cyclase 8 (brain) (ADCY8): −1.3408
log intensity, alpha 2,8-sialyltransferase: −1.105
log intensity, aminolevulinate, delta-, dehydratase, clone MGC: 5057: 1.3099
log intensity, annexin A6 (ANXA6), transcript variant 1: 3.89
log intensity, apolipoprotein A-II (APOA2): −1.102
log intensity, apolipoprotein C-I (APOC1): 3.25
log intensity, arrestin, beta 1 (ARRB1), transcript variant 1: −0.1588
log intensity, bHLH factor Hes4 (LOC57801): 0.4782
log intensity, beta3GalNAcT-1 mRNA for globoside synthase, clone: type 2: −2.733
log intensity, bone morphogenetic protein 2 (BMP2): 2.045
log intensity, bone morphogenetic protein 5 (BMP5): −0.6099
log intensity, bromodomain and PHD finger containing, 3: −2.8472
log intensity, c-mer proto-oncogene tyrosine kinase (MERTK): 1.79
log intensity, cDNA FLJ11390 fis, clone HEMBA1000561: −1.129
log intensity, cDNA FLJ13221 fis, clone NT2RP4002075: 0.2828
log intensity, cDNA FLJ13392 fis, clone PLACE1001280: −1.902
log intensity, cDNA FLJ13810 fis, clone THYRO1000279: −2.924
log intensity, cDNA FLJ30081 fis, clone BGGI12000693: 0.6779
log intensity, cDNA FLJ34035 fis, clone FCBBF2004788: −3.58
log intensity, cDNA FLJ36116 fis, clone TESTI2022338: 3.026
log intensity, cDNA: FLJ22731 fis, clone HSI15841: −2.309
log intensity, cDNA: FLJ22808 fis, clone KAIA2925: −0.3674
log intensity, cDNA: FLJ23067 fis, clone LNG04993: −2.256
log intensity, calmegin (CLGN): −0.1043
log intensity, cardiac ankyrin repeat protein (CARP): −0.002291
log intensity, cartilage linking protein 1: 0.8794
log intensity, caspase-like apoptosis regulatory protein 2 (clarp): 0.4342
log intensity, chemokine receptor CXCR4 mRNA: 2.306
log intensity, cleft lip and palate associated transmembrane protein 1, clone MGC: 10593: 1.316
log intensity, clone FLC1492 PRO3121 mRNA: −0.3
log intensity, clone HB-2 mRNA sequence: −0.5039
log intensity, clone IMAGE: 3509274, mRNA, partial cds: 0.4937
log intensity, clone IMAGE: 4047715, mRNA: −2.508
log intensity, clone MGC: 14801: 2.039
log intensity, clone MGC: 24252 IMAGE: 3932604: −1.533
log intensity, clone TUA8 Cri-du-chat region mRNA: 0.09218
log intensity, collagen, type V, alpha 1: 1.5875
log intensity, complement component 5 (C5): −1.896
log intensity, core histone macroH2A2.2 (MACROH2A2): 1.673
log intensity, cystatin C (amyloid angiopathy and cerebral hemorrhage) (CST3): 2.086
log intensity, deiodinase, iodothyronine, type III (DIO3): −0.1369
log intensity, dickkopf (Xenopus laevis) homolog 1 (DKK1): 0.9815
log intensity, dual specificity phosphatase 4, clone MGC: 3713: 2.115
log intensity, dynein, axonemal, light polypeptide 4 (DNAL4): 0.4583
log intensity, dystrophin (muscular dystrophy, Duchenne and Becker types) (DMD), transcript variant Dp427p2: 1.404
log intensity, ectodermal dysplasia 1, anhidrotic (ED1): 0.7966
log intensity, elongation of very long chain fatty acids (FEN1Elo2, SUR4Elo3, yeast)-like 2 (ELOVL2): 0.09998
log intensity, endothelin receptor type A (EDNRA), mRNA: 0.763
log intensity, endothelin receptor type A (r1027): −1.834
log intensity, enolase 2, (gamma, neuronal) (ENO2): 2.606
log intensity, eomesodermin (Xenopus laevis) homolog (EOMES): 2.659
log intensity, erythrocyte membrane protein band 4.9 (dematin) (EPB49): −0.3066
log intensity, fasciculation and elongation protein zeta 1 (zygin I) (FEZ1), transcript variant 1: 1.864
log intensity, forkhead box F2 (FOXF2): −1.545
log intensity, gelsolin (amyloidosis, Finnish type) (GSN): 1.6198
log intensity, glucose-6-phosphate transporter (G6PT) gene, G6PT-Dt allele: −0.1935
log intensity, glutathione S-transferase A2 (GSTA2): −3.106
log intensity, glycoprotein M6A: 0.2744
log intensity, guanylate cyclase activator 1B (retina) (GUCA1B): −0.7142
log intensity, heparan sulfate proteoglycan 2 (perlecan): −2.533
log intensity, hexabrachion (tenascin C, cytotactin) (HXB): 3.969
log intensity, high mobility group protein-R: 1.047
log intensity, hypothetical protein BC017868 (LOC159091): −0.2902
log intensity, hypothetical protein DKFZp434F0318: −1.115
log intensity, hypothetical protein DKFZp434F2322: 0.07058
log intensity, hypothetical protein DKFZp564B052: 1.478
log intensity, hypothetical protein FLJ10312: 1.595
log intensity, hypothetical protein FLJ11155: −3.346
log intensity, hypothetical protein FLJ11560: −0.04411
log intensity, hypothetical protein FLJ12538 similar to ras-related protein RAB17: 1.706
log intensity, hypothetical protein FLJ12666 (r758): 0.2158
log intensity, hypothetical protein FLJ12666 (r998): 2.341
log intensity, hypothetical protein FLJ12838: 1.491
log intensity, hypothetical protein FLJ21195 similar to protein related to DAC and cerberus: −1.385
log intensity, hypothetical protein FLJ22471: 0.9038
log intensity, hypothetical protein FLJ23091: −0.7609
log intensity, hypothetical protein FLJ23514: 0.5646
log intensity, hypothetical protein FLJ32835: −0.5956
log intensity, hypothetical protein MGC2865, clone MGC: 20246: −2.431
log intensity, insulin-like growth factor binding protein 6 (IGFBP6): 2.6126
log intensity, keratin 19 (KRT19): 3.806
log intensity, kidney-specific membrane protein NX-17: 1.919
log intensity, lipase mRNA: −2.2131
log intensity, lymphocyte antigen 6 complex, locus E (LY6E): 0.8664
log intensity, mRNA for KIAA0876 protein: −0.432
log intensity, mRNA for KIAA1161 protein: 0.7818
log intensity, mRNA for MSX-2: 0.4072
log intensity, mRNA for protein-tyrosine kinase: 0.161
log intensity, mRNA; cDNA DKFZp434E082: 1.364
log intensity, mRNA; cDNA DKFZp434K0621: 0.5814
log intensity, mRNA; cDNA DKFZp434P228: 1.768
log intensity, mRNA; cDNA DKFZp547H236: 1.372
log intensity, mRNA; cDNA DKFZp564K1672: 4.494
log intensity, mRNA; cDNA DKFZp586G2120: −1.809
log intensity, mRNA; cDNA DKFZp586L0120: −2.726
log intensity, mRNA; cDNA DKFZp762H185: 2.837
log intensity, mandaselin long form: −0.1481
log intensity, matrix metalloproteinase 15 (membrane-inserted) (MMP15): −0.2985
log intensity, microseminoprotein, beta-(MSMB): −2.379
log intensity, mitogen-activated protein kinase 10 (MAPK10): 0.648
log intensity, nuclear factor of kappa light polypeptide gene enhancer in B-cells inhibitor, alpha: 2.915
log intensity, nuclear receptor subfamily 0, group B, member 1 (NR0B1) (r534): −1.928
log intensity, nuclear receptor subfamily 0, group B, member 1 (NR0B1) (r1079): −0.2138
